In patent US11147859B2, “Diffusion enhancing compounds and their use alone or with thrombolytics” (Diffusion Pharmaceuticals LLC, priority 2009, dated 2021):
Several values for one entry are separate records, joined by “and”; a condition that tells them apart may be missing. Identical values can stand only once. Entries after “also recorded” stand apart in the source; their conditions may differ.

Columns and labels:
[1] = Stability of TSC in formulation as a function of pH; type: physicochemical; conditions: formulation with glycine buffer; pH around 8.2+/-0.5 required
[2] = Absorption of TSC into the blood stream after intramuscular injection with gamma cyclodextrin; type: in vivo; conditions: rats
[3] = system: ischemic tissue in brain sections; experiment: Ischemic stroke model: middle cerebral artery and two carotid arteries ligated for 2 hours; type: in vivo; conditions: TSC 0.1 mg/kg given after removal of 2 hour ligature; rats sacrificed after 24 hours
Protocol: In order to find new drugs for stoke victims, different animal models of ischemic stroke are used. In one model, blood vessels (middle cerebral artery, two carotid arteries) are ligated for a period of 2 hours. The ligature is then removed, a drug is given, and the animals (rats in this case) are sacrificed after 24 hours. The brain sections are stained and examined in order to determine the amount of damaged (ischemic) tissue.

[4] = Solubility of TSC in aqueous cyclodextrin solutions; type: physicochemical
[5] = system: rabbit small clot embolic stroke model (RSCEM); experiment: Rabbit small clot embolic stroke model (RSCEM), quantal dose-response analysis of behavior; type: in vivo, Male New Zealand white rabbits; conditions: TSC 0.25 mg/kg IV bolus 1 hour post-embolization; behavior measured 24 hours following embolization; Mean±SEM
Description: Methods: This model uses rabbits and is known as RSCEM. Male New Zealand white rabbits were anesthetized using isoflurane (5% induction, 2% maintenance by facemask), the bifurcation of the right carotid artery was exposed and the external carotid was ligated just distal to the bifurcation, where a catheter was inserted into the common carotid and secured with ligatures. The incision was closed around the catheter with the distal ends left accessible outside the neck; the catheter was filled with heparinized saline and plugged with an injection cap. Rabbits were allowed to recover from anesthesia for a minimum of 2 h until they behaved normally. […] Microclots were re-suspended in PBS, then washed and allowed to settle, followed by aspiration of the supernatant and spiking of the microclots with tracer quantities of 15-μm radiolabeled microspheres. The specific activity of the particles was determined by removing an aliquot, after which appropriate volumes of PBS solution were added so that a predetermined weight of clot particles were rapidly injected through the catheter and both the syringe and catheter were flushed with 5 ml of normal saline. […]
These parameters are measures of the amount of microclots (in mg) that produce neurologic dysfunction in 50% of a group of animals (P50). The P50 values are then calculated as described previously and are presented as Mean±SEM. […]

[6] = system: collagenase-injection model of ICH; experiment: Collagenase-injection model of intracranial hemorrhage (ICH); type: in vivo, Sprague-Dawley rats
Protocol: Twelve male, Sprague-Dawley rats (Taconic, Inc.), weighing between 250 to 300 Grams were fed ad libitum and maintained on a 12-hour light/dark cycle. The rats were randomly assigned to 1 of 2 groups as follows: TSC-treated group (n=6) receiving intravenous infusion of TSC (total dose 0.091 mg/kg) and a Control group receiving intravenous infusion of 0.9% normal saline. A collagenase-injection model of ICH was utilized. Animals were anesthetized for 5 minutes with 5% halothane and endotracheally intubated. Anesthesia was maintained under 1 to 1.5% halothane with ventilation supported using Fi02 of 50%. Tail artery cannulation was applied to monitor the blood pressure and arterial blood gas, and a rectal temperature probe monitored body temperature. The right femoral vein was cannulated and connected to a microinjection infusion pump for TSC or saline administration. Body temperature was maintained at 37° C. with a heating pad. Rats were secured into a stereotactic frame with a midline incision over the skull and a cranial burr hole of 1 mm in diameter was drilled with 0.2 mm anterior and 3.5 mm right lateral to Bregma. A 26-gauge needle was inserted stereotactically into the right basal ganglion (5.5 mm ventral) and 5 μL collagenase (0.05 U bacteria collagenase; type IV, Sigma Chemical Co.) was infused at a rate of 1 μL/min using a microinfusion pump. The needle was kept in the striatum for an additional 5 minutes to limit collagenase flow back into the burr hole. After withdrawing the needle, the craniotomy was sealed with bone wax and the wound was sutured closed. TSC was injected intravenously 3 hours after ICH at a final total dosage of 0.091 mg/kg. The TSC formulation used was the sterile lyophilized TSC injectable formulation which was reconstituted with sterile water for injection and diluted with deionized water pH'd to 8.0 with dilute sodium carbonate. […] The outcomes assessed 48 hours post-ICH included hematoma volume, hemoglobin content representing hemorrhagic volume in the injected striatum, and tissue edema. […] Using Meta Morph image analysis software, the hemorrhage area for each section was measured and the total hematoma volume was calculated by summing the clot area in each section and multiplying by the thickness of the sections. A tissue edema index was calculated in each rat by measuring and comparing both of the hemispheres (Edema Index=(R−L)×100/L, R is right hemisphere volume, L is left hemisphere volume). A hemorrhagic volume index was quantified by measuring hemoglobin content in the injected hemisphere. […] This reaction converts hemoglobin to cyanomethemoglobin, the concentration of which can be assessed by the optical density (OD) of the solution at 550 nm wavelength. […]

[7] = TSC 0.1 mg/kg, rat collagenase model (summary in description)

SMILES: CC(/C=C/C=C(\C)C(=O)[O-])=C\C=C\C=C(C)\C=C\C=C(/C)C(=O)[O-].[Na+].[Na+] [TSC, trans sodium crocetinate]
- stability versus pH [1]: more stable at higher pHs
- absorption into the blood stream [2]: quick
- reduction in the amount of ischemic tissue [3]: about 60%
- TSC concentration reached in aqueous solution ([4]; TSC and gamma-cyclodextrin): ≤ 44 milligrams of TSC per ml of solution
- TSC concentration reached in solution ([4]; TSC formulated with a cyclodextrin and mannitol): over 20 mg TSC/ml of solution
- P50 (amount of microclots that produces neurologic dysfunction in 50% of a group of animals) [5]: 2.84±1.01 mg and 2.84±0.51 mg
- hemorrhage volume (amount of blood that hemorrhages into the brain) [6, 7]: decrease
- reduction in amount of edema caused by the hemorrhagic stroke [6, 7]: about 50%
- hematoma volume/size after ICH vs saline control ([6]; TSC total dose 0.091 mg/kg IV starting 3 hours after ICH, assessed 48 hours post-ICH, n=6, 0.091 mg/kg): slightly, but not statistically significantly, reduced; also recorded: did not differ
- reduction in hemorrhagic volume (tissue hemoglobin content) vs saline control ([6]; TSC total dose 0.091 mg/kg IV starting 3 hours after ICH, assessed 48 hours post-ICH, n=6, p<0.05): approximately 20%
